According to BindingDB's records for doi:10.1074/jbc.M113.487736 (Universität Duisburg-Essen, 2014):
pIC50: −log10 of the molar value.

Key:
[1] = molecular target: T1, NAD-dependent protein deacetylase sirtuin-2 (Homo sapiens, UniProt Q8IXJ6); experiment: Fluorescence-Based Deacetylation Assay; conditions: pH 8; 37 °C
T1 sequence (Q8IXJ6 whole entry): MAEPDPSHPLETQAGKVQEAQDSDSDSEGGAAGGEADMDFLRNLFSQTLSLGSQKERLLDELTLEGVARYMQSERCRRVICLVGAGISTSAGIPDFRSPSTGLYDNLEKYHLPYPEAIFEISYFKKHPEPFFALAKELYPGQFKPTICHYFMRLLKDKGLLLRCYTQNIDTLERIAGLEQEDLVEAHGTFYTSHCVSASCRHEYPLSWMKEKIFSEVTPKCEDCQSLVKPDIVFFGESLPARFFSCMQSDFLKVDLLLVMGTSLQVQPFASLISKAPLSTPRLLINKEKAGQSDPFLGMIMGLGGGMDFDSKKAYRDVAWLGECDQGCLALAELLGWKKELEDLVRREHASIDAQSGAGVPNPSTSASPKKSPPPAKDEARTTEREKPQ
Protocol: (§1) Deacetylation assays using Boc(Ac)Lys-7-amino-4-methyl-coumarin (MAL; Bachem, Bubendorf, Switzerland) as a substrate were performed in a volume of 20 μl in 384-well low volume plates (Eppendorf) in a reaction buffer containing 25 mM Tris-HCl (pH 8.0), 137 mM NaCl, 1 mM MgCl2, 2.7 mM KCl, 1 mg/ml BSA, and 1mM DTT. Enzymes were added at different concentrations to wells in a volume of 10 μl and were preincubated with inhibitors (volume 1 μl, diluted in dimethyl sulfoxide) or with dimethyl sulfoxide as a control for 10 min at room temperature. Subsequently, 10 μl 2× concentrated substrate solution containing 200 μM MAL and 2 mM NAD+ was added to initiate the reaction, which was incubated at 37 °C for 4 h. This allowed for ~50% deacetylation of MAL. After incubation, 20 μl of trypsin solution (0.5 mg/ml) was added, and the trypsin cleavage reaction was allowed to proceed at 37 °C for 1 h. Fluorescence readings were obtained using a fluorescence reader(GENiosPro TECAN), with the excitation wavelength set to 360 nm and the emission set to 465 nm.

[2] = molecular target: T2, NAD-dependent protein deacetylase sirtuin-1 (Homo sapiens, UniProt Q96EB6); experiment: Fluorescence-Based Deacetylation Assay; conditions: pH 8; 37 °C
T2 sequence (Q96EB6 whole entry): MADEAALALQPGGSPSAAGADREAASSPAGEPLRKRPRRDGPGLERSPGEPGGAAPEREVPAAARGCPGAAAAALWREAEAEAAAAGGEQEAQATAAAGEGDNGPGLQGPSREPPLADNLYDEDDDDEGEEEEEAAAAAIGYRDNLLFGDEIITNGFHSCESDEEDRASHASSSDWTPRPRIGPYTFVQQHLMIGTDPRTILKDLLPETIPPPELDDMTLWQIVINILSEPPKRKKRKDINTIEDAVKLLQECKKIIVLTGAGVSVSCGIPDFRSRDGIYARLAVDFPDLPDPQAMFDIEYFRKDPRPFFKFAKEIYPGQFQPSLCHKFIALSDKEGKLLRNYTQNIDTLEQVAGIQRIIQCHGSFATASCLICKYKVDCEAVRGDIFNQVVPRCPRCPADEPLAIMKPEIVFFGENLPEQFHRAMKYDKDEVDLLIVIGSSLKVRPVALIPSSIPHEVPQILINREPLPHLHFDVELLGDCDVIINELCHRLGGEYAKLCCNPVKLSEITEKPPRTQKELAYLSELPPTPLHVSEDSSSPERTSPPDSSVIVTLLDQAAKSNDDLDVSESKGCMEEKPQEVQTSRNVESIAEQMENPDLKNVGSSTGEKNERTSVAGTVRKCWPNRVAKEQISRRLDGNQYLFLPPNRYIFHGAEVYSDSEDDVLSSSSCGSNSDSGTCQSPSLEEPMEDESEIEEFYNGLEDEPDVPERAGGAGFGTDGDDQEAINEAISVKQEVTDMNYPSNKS
Protocol: as §1

O=C(NCc1cccnc1)c1ccc2c(c1)C1C3CCC(C3)C1C(c1ccccc1)N2 (stereo not given) [AEM2]
pIC50 [1]: 5.42
pIC50 [2]: < 4.00

COCCCNC(=O)c1ccc2c(c1)C1C3CCC(C3)C1C(c1ccccc1)N2 (stereo not given) [AEM1 derivative, 1]
pIC50 [1]: 4.73

NC(=O)c1ccc2c(c1)C1C3CCC(C3)C1C(c1ccccc1)N2 (stereo not given) [AEM1]
pIC50 [1]: 4.73
pIC50 [2]: 3.93
